Laboratory results: patent EP0431784A2, “Methods for treating retroviral infection” (ELI LILLY AND COMPANY, priority 1989, dated 1991)
Where a SMILES comes first, the peptide text is derived from it. [ ]: non-standard residue; d: D form. Phe(4-NH2) = Nc1ccc(C[C@H](N)C(=O)O)cc1; Sta = CC(C)C[C@H](N)[C@@H](O)CC(=O)O

Test system: HIV-1 protease
Details: for potency relative to the P-9 peptide: protease inhibitor potency compared with P-9 as standard
Description: A 100 µl control reaction was established containing 10 to 20 µI of crude protease, about 2 µl of the gag supernatant and final concentrations of 50 mM MES Buffer (pH 5.5), 1 mM DTT and 25 mM NaCI. Inhibition assays were performed by pre-incubating the crude protease with an inhibitory compound at room temperature for about 30 minutes before adding the gag supernatant to the reaction. Both the control and the experimental reactions were incubated from three to sixteen hours at 37° C. The reactions were then electrophoresed and blotted onto nitrocellulose filters. Monoclonal antibodies which recognize epitopes on p24 and p17 viral proteins were contacted with the filter then visualized using standard biotinylation or radionuclear techniques. Compounds which prevented the maturation of the gag polypeptide into mature viral proteins p24 and p17 were then ranked according to their HIV-1 protease inhibitory activity.
About 10 to 20 µl of the crude protease lysate was mixed with about 2 µl of the gag supernatant. The mixture was then brought to a total volume of 100 µl by the addition of distilled water, MES buffer (2-(N-Morpholino]ethanesulfonic acid) (pH 5.5 to a total concentration of 50 mM), DTT (dithiolthreitol) (to a total concentration of 1 mM) and NaCl (to a total concentration of 25 mM). This reaction mixture was mixed gently then incubated from 3 hours to overnight at 37° C.
Next, about 25 µl of the reaction was mixed with loading buffer and subjected to polyacrylamide gel electrophoresis on a 12.5% Laemmli gel under reducing conditions. The proteins were transferred onto a nitrocellulose filter using standard "Western Blot" electrophoresis at 500 mAmps for 35 minutes at room temperature. The filter was air-dried, then non-specific immunoreaction was blocked by washing the filter for 30 minutes at 4° C in a solution of 3% non-fat dry milk powder in phosphate buffered saline (PBS).
Monoclonal antibodies against p17 and/or p24 (available from Dupont, Wilmington, Delaware) were added to about 40 ml of the 3% milk/PBS solution to a final concentration of 2 µg/ml. The nitrocellulose filter was added to the antisera solution and slowly rocked for 2 hours at 4 C. The filter then was removed and washed 5 times with PBS, then the maturation of the gag gene was determined by reaction with 1^125- labeled protein A or by reaction with biotinylated anti-mouse lgG antibodies (Vecta Stain@).
To run the I^125-labeled protein A reaction, about 10 µCi of I^125-labeled protein A was added to 100 ml of the 3% milk/PBS solution. The filter was rocked in this solution for 2 hours at 4° C, washed three times with PBS, then two times with PBS and 0.1% Tween 20. The filter was then air-dried and exposed to x-ray film for autoradiography.
The Vecta Stain@ (Vector Laboratories, Burlingome, California) procedure was performed according to the manufacturer's recommendations. Four drops of the biotinylated IgG was added to 40 mls of the 3% Milk/PBS solution, then the filter was rocked in this solution for 60 minutes at 4° C. The filter was washed five times with PBS, then rocked for 30 to 60 minutes at 4 C in Reagent ABC. Reagent ABC was prepared by adding 4 drops of Reagent A (Avidin DH) and 4 drops of Reagent B (biotinylated peroxidase) to 20 ml of 3% Milk/PBS. The filter was then washed five times with PBS, then the filter was developed by washing it for 5 to 10 minutes in 10 ml of PBS containing 0.02% H202 and 10 ml of 4-chloro-1 naphthol. When the color was fully developed, the filter was washed with distilled water and air-dried.
Following the procedure, it is simple to determine the activity of the HIV-1 protease encoded on plasmid pHP10D and produced in E. coli cells.

Row | SMILES | HIV protease inhibitory activity (result in words) | potency relative to the P-9 peptide | also measured
1 | COc1ccc(C[C@H](NC(C)=O)C(=O)N2CCC[C@H]2C(=O)N[C@@H](Cc2ccccc2)C(=O)N[C@H](C(=O)N[C@@H](CC(C)C)[C@@H](O)CC(=O)N[C@@H](CC(C)C)C(=O)N[C@@H](Cc2ccccc2)C(N)=O)C(C)C)cc1 [P-9, Ac-YOM-Pro-Phe-Val-Statine-Leu-Phe-NH2] (Ac-Y(Me)PFV[Sta]LF-NH2) | – | – | potency relative to P-7 (protease inhibitor potency compared with P-7): increases the potency three to four times
2 | COc1ccc(C[C@H](NC(C)=O)C(=O)N[C@@H](Cc2ccccc2)C(=O)N[C@H](C(=O)N[C@@H](CC(C)C)[C@@H](O)CC(=O)N[C@@H](CC(C)C)C(=O)N[C@@H](Cc2ccccc2)C(=O)N[C@@H](Cc2ccc(O)cc2)C(=O)N[C@@H](CC(C)C)C(N)=O)C(C)C)cc1 [Ac-YOM-Phe-Val-Statine-Leu-Phe-Tyr-Leu-NH2] (Ac-Y(Me)FV[Sta]LFYL-NH2) | totally inactive | – | –
3 | CC(C)C[C@H](NC(=O)C[C@H](O)[C@H](CC(C)C)NC(=O)[C@@H](NC(=O)[C@H](Cc1ccccc1)NC(=O)[C@@H]1CCCN1C(=O)[C@H](Cc1ccc(N)cc1)NC(=O)[C@@H]1CCCN1)C(C)C)C(=O)N[C@@H](Cc1ccccc1)C(=O)N[C@@H](Cc1ccc(N)cc1)C(N)=O [P-1, H-Pro-paF-Pro-Phe-Val-Statine-Leu-Phe-paF-NH2] (H-P[Phe(4-NH2)]PFV[Sta]LF[Phe(4-NH2)]-NH2) | – | – | potency relative to the R,S-diastereomer (P-28) ((S,S) Statine versus R,S-Sta peptide): 20 times
4 | CC(=O)N[C@H](C(=O)N[C@@H](CC(C)C)[C@@H](O)CC(=O)N[C@@H](CC(C)C)C(=O)N[C@@H](Cc1ccccc1)C(N)=O)C(C)C [Ac-Val-Statine-Leu-Phe-NH2] (Ac-V[Sta]LF-NH2) | inactive | – | –
5 | COc1ccc(C[C@H](NC(C)=O)C(=O)N2CCC[C@H]2C(=O)N[C@@H](Cc2ccccc2)C(=O)N[C@H](C(=O)N[C@@H](CC(C)C)[C@@H](O)CC(=O)N[C@@H](CC(C)C)C(=O)N[C@@H](Cc2ccccc2)C(=O)N[C@@H](Cc2ccc(O)cc2)C(=O)N[C@@H](CC(C)C)C(N)=O)C(C)C)cc1 [P-30, Ac-YOM-Pro-Phe-Val-Statine-Leu-Phe-Tyr-Leu-NH2] (Ac-Y(Me)PFV[Sta]LFYL-NH2) | – | about 1.5 times | –
6 | COc1ccc(C[C@H](NC(=O)[C@H](Cc2ccc(O)cc2)NC(=O)CNC(C)=O)C(=O)N2CCC[C@H]2C(=O)N[C@@H](Cc2ccccc2)C(=O)N[C@H](C(=O)N[C@@H](CC(C)C)[C@@H](O)CC(=O)N[C@@H](CC(C)C)C(=O)N[C@@H](Cc2ccccc2)C(N)=O)C(C)C)cc1 [P-29, Ac-Gly-Tyr-YOM-Pro-Phe-Val-Statine-Leu-Phe-NH2] (Ac-GYY(Me)PFV[Sta]LF-NH2) | – | three times more potent | –
